Where two headings read alike, the source gives them in different places.
Columns and labels:
human α1B-adrenoceptor = target: T1, human α1B-adrenoceptor (Homo sapiens, UniProt P35368); experiment: [3H]prazosin whole-cell competition binding, CHO-α1B cells; details: for Kd: read-out: Log KD α1B (converted); for Selectivity ratio α1B vs α1D: ratio of KD values, higher α1B affinity, 1.0 under vs = none
T1 construct: CHO cells stably expressing either the full‐length human α1A, α1B, or α1D‐adrenoceptor
T1 sequence (P35368 1-520): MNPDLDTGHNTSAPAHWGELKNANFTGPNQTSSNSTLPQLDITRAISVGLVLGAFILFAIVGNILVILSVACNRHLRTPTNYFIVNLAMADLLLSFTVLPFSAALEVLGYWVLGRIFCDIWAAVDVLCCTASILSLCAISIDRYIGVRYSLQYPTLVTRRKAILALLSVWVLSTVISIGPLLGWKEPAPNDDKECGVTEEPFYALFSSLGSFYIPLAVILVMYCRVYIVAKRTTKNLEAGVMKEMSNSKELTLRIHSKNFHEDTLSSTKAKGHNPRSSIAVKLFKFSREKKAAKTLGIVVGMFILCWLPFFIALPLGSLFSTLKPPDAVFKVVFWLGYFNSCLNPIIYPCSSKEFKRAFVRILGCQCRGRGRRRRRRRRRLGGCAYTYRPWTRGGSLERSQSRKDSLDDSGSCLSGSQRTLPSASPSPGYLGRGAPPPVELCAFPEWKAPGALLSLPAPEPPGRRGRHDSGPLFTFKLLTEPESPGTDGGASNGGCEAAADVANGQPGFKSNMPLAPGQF

human α1A-adrenoceptor = target: T2, human α1A-adrenoceptor (Homo sapiens, UniProt P35348); experiment: [3H]prazosin whole-cell competition binding, CHO-α1A cells; details: for selectivity α1A vs 1D / selectivity α1A vs α1B: ratio, 1 = no selectivity for a subtype over another
T2 construct: CHO cells stably expressing either the full‐length human α1A, α1B, or α1D‐adrenoceptor
T2 sequence (P35348 1-466): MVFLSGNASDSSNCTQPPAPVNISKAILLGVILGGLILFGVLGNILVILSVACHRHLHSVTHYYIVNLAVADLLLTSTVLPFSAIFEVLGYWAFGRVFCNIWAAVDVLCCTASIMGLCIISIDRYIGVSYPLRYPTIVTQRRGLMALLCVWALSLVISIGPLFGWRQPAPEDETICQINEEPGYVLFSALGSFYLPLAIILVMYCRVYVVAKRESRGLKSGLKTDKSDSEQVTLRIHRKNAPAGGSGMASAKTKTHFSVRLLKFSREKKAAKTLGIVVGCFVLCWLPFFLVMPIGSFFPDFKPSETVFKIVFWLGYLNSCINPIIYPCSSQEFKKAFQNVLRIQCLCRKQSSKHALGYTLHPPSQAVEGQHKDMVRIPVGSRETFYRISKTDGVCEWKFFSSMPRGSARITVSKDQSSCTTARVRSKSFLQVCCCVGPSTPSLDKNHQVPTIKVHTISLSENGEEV

[1] = target: T3, full-length human α1D-adrenoceptor (Homo sapiens, UniProt P25100); experiment: [3H]prazosin whole-cell competition binding, CHO-α1D cells
T3 sequence (P25100 1-572): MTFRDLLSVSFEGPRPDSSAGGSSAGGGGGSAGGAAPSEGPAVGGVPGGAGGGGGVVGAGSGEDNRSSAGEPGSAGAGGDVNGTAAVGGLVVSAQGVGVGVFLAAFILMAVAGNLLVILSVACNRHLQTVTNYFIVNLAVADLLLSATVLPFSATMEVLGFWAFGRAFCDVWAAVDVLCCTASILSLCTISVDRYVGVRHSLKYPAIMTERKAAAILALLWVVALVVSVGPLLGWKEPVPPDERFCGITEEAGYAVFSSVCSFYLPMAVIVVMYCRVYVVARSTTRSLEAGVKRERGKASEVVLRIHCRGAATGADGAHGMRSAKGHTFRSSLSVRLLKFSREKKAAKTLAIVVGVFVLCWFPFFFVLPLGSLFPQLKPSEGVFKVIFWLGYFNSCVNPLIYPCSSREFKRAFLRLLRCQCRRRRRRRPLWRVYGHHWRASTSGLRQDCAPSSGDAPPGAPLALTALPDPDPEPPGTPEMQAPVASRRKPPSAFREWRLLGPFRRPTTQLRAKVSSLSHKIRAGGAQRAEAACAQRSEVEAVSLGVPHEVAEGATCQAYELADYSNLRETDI

[2] = single-component inhibition curve, given as log KD (negative), mean ± SE mean
[3] = single-component inhibition curve, given as log KD (negative), mean ± SE mean, read-out: Log KD α1A (converted)
[4] = percentage of inhibition through first component, control
[5] = two-component inhibition curve, proportion of site 1
[6] = ratio of KD values, higher α1A affinity, 1.0 under vs = none
[7] = ratio of KD values, printed under α1A = higher α1A affinity, 1.0 under vs = none
[8] = Log KD α1D, single-component inhibition curve, given as log KD (negative), mean ± SE mean
[9] = ratio, 1 = no selectivity for a subtype over another
[10] = ratio of KD values, higher α1D affinity (site 1 KD)
[11] = log KD from 3H-prazosin whole cell binding, CHO cells, mean ± s.e.mean
[12] = app: top concentration inhibited most but not all specific binding, curve extrapolated

Cc1nc2n(c(=O)c1CCN1CCC(c3noc4cc(F)ccc34)CC1)CCCC2O (centres unmarked) [Paliperidone]
selectivity α1B vs α1D (human α1B-adrenoceptor): 1.3 | Kd (human α1B-adrenoceptor; [2]): 43.7 nM | Selectivity ratio α1A vs α1B (human α1A-adrenoceptor): 10 fold | Selectivity ratio α1A vs α1D (human α1A-adrenoceptor): 7.8 fold | Kd (human α1A-adrenoceptor; [3]): 4.37 nM | Log KD α1D site 2 [1]: −5.57 ± 0.21 | Selectivity ratio α1B vs α1D [1]: 1.3 fold | Kd ([1]; Log KD α1D site 1, high-affinity component of two-component curve, control, used for selectivity): 33.9 nM | % site 1 α1D [1, 4]: 57.6 ± 4.9% site 1 | % site 1 α1D [1, 5]: -7.47 ± 0.10 -5.57 ± 0.21 57.6 ± 4.9% site 1

CC(CN1c2ccccc2Sc2ccccc21)N(C)C (centres unmarked) [Promethazine]
Selectivity ratio α1B vs α1D (human α1B-adrenoceptor): 2.0 fold | Kd (human α1B-adrenoceptor; [2]): 871 nM | Selectivity ratio α1A vs α1D (human α1A-adrenoceptor; [6]): 18 fold | Selectivity ratio α1A vs α1B (human α1A-adrenoceptor; [7]): 8.7 fold | Kd (human α1A-adrenoceptor; [3]): 100 nM | Kd [1, 8]: 1780 nM

CNCCCC1c2ccccc2C=Cc2ccccc21 [Protriptyline]
Selectivity ratio α1B vs α1D (human α1B-adrenoceptor): 1.3 fold | Kd (human α1B-adrenoceptor; [2]): 2690 nM | Selectivity ratio α1A vs α1D (human α1A-adrenoceptor; [6]): 16 fold | Selectivity ratio α1A vs α1B (human α1A-adrenoceptor; [7]): 13 fold | Kd (human α1A-adrenoceptor; [3]): 214 nM | Kd [1, 8]: 3470 nM

CC(C)(Cc1c[nH]c2ccc(Cl)cc12)NCCOc1ccccc1OCC1CC1.Cl [RS17053, N‐[2‐(2‐cyclopropylmethoxyphenoxy)ethyl]‐5‐chloro‐alpha, alpha‐dimethyl‐1H‐indole‐3‐ethanamine hydrochloride]
selectivity α1B vs α1D (human α1B-adrenoceptor; [9]): 1.7 | Kd (human α1B-adrenoceptor; [2]): 245 nM | Selectivity ratio α1A vs α1D (human α1A-adrenoceptor; [6]): 31 fold | Selectivity ratio α1A vs α1B (human α1A-adrenoceptor; [7]): 52 fold | Kd (human α1A-adrenoceptor; [3]): 4.68 nM | Kd [1]: 145 nM | Selectivity ratio α1B vs α1D [1, 10]: 1.7 fold

CCS(=O)(=O)N1CCC[C@@H]2CN3CCc4cc(OC)ccc4[C@@H]3C[C@@H]21 [RS79948]
selectivity α1B vs α1D (human α1B-adrenoceptor; [9]): 12 | Log KD α1B (human α1B-adrenoceptor; [2]): −4.99 ± 0.05 | Selectivity ratio α1A vs α1B (human α1A-adrenoceptor; [7]): 5.8 fold | selectivity α1A vs 1D (human α1A-adrenoceptor): 2.1 | Log KD α1A (human α1A-adrenoceptor; [2]): −5.75 ± 0.05 | Selectivity ratio α1A vs α1D [1, 10]: 2.1 fold | Selectivity ratio α1B vs α1D [1, 10]: 12 fold | Log KD α1D [1, 2]: −6.07 ± 0.11

Cc1c[nH]c(=O)n(CCCN2CCN(c3ccccc3OCC(F)(F)F)CC2)c1=O [RS100329]
selectivity α1B vs α1D (human α1B-adrenoceptor; [9]): 9.1 | Log KD α1B (human α1B-adrenoceptor; [2]): −6.67 ± 0.07 | Selectivity ratio α1A vs α1D (human α1A-adrenoceptor; [6]): 93 fold | Selectivity ratio α1A vs α1B (human α1A-adrenoceptor; [7]): 851 fold | Log KD α1A (human α1A-adrenoceptor; [2]): −9.60 ± 0.05 | Kd (human α1A-adrenoceptor; subtype not given, ligands with α1A selectivity (Table 1: α1A), read-out: affinity): < 0.25 nM | Log KD α1D site 1 ([1]; high-affinity component of two-component curve, control, used for selectivity): −7.63 ± 0.17 | Log KD α1D site 2 ([1]; low-affinity component of two-component curve, control): −5.13 ± 0.15 | % site 1 α1D [1, 4]: 70.5 ± 3.0% site 1 | Selectivity ratio α1B vs α1D [1, 10]: 9.1 fold | % site 1 α1D [1, 5]: -7.63 ± 0.17 -5.13 ± 0.15 70.5 ± 3.0% site 1

COC1(C2=NCCN2)COc2ccccc2O1 (centres unmarked) [RX821002]
Selectivity ratio α1B vs α1D (human α1B-adrenoceptor): 1.4 fold | Log KD α1B (human α1B-adrenoceptor; [2]): −5.46 ± 0.06 | Selectivity ratio α1A vs α1D (human α1A-adrenoceptor; [6]): 16 fold | Selectivity ratio α1A vs α1B (human α1A-adrenoceptor; [7]): 11 fold | Log KD α1A (human α1A-adrenoceptor; [2]): −6.51 ± 0.09 | Log KD α1D [1, 2]: −5.31 ± 0.13

COC1(C2=NCCN2)COc2ccccc2O1 (centres unmarked) [RX 821002]
Log KD α1B (human α1B-adrenoceptor; [11]): -5.46 ± 0.06 | selectivity α1B vs α1D (human α1B-adrenoceptor; [9]): 1.4 | Log KD α1A (human α1A-adrenoceptor; [11]): -6.51 ± 0.09 | selectivity α1A vs 1D (human α1A-adrenoceptor): 16 | selectivity α1A vs α1B (human α1A-adrenoceptor): 11 | Log KD α1D [1, 11]: -5.31 ± 0.13

COc1ccc(NC(=O)N2CCc3c2ccc2ccccc32)cc1N1CCN(C)CC1 [S32212]
Log KD α1B (apparent) (human α1B-adrenoceptor; [12]): −4.92 ± 0.02^app | selectivity α1B vs α1D (human α1B-adrenoceptor; [9]): 5.9 | Selectivity ratio α1A vs α1D (human α1A-adrenoceptor; [6]): 1.6 fold | Selectivity ratio α1A vs α1B (human α1A-adrenoceptor; [7]): 9.5 fold | Log KD α1A (human α1A-adrenoceptor; [2]): −5.90 ± 0.06 | Log KD α1D (apparent) [1, 12]: −5.69 ± 0.13^app | Selectivity ratio α1B vs α1D [1, 10]: 5.9 fold

CC(C)OC(=O)c1cc2c(OCC(O)CNC(C)(C)C)cccc2[nH]1 (centres unmarked) [SDZ21009]
selectivities α1B vs α1D (human α1B-adrenoceptor; selectivity ratio, 1 = no selectivity for a given receptor subtype over another): >12 | Log IC50 α1B (human α1B-adrenoceptor; top concentration inhibited some but 50% or less of specific binding, printed as log IC50): Log IC50 > −4 | Selectivity ratio α1A vs α1D (human α1A-adrenoceptor; [6]): 1.4 fold | Selectivity ratio α1A vs α1B (human α1A-adrenoceptor; [7]): >17 fold | Log KD α1A (human α1A-adrenoceptor; [2]): −5.24 ± 0.07 | Selectivity ratio α1B vs α1D [1, 10]: >12 fold | Log KD α1D [1, 2]: −5.09 ± 0.18

CC(C)OC(=O)c1cc2c(OCC(O)CNC(C)(C)C)cccc2[nH]1 (centres unmarked) [SDZ 21009]
Log IC50 α1B (human α1B-adrenoceptor; log IC50 bound): Log IC50>-4 | selectivity α1B vs α1D (human α1B-adrenoceptor; [9]): >12 | Log KD α1A (human α1A-adrenoceptor; [11]): -5.24 ± 0.07 | selectivity α1A vs 1D (human α1A-adrenoceptor): 1.4 | selectivity α1A vs α1B (human α1A-adrenoceptor): >17 | Log KD α1D [1, 11]: -5.09 ± 0.18

From PMC7327383, “The affinity and selectivity of α‐adrenoceptor antagonists, antidepressants, and antipsychotics for the human α1A, α1B, and α1D‐adrenoceptors” (Pharmacology Research & Perspectives, 2020)
